According to ChEMBL document CHEMBL4414665, “Dynamic Chirality in the Mechanism of Action of Allosteric CD36 Modulators of Macrophage-Driven Inflammation” (J Med Chem, 2019):
Active and inactive are the calls of the source. No cut-off for these calls is given here.

Key:
[1] = biological target: Platelet glycoprotein 4 (Mus musculus) (UniProt Q08857); experiment: Modulation activity at CD36 in mouse RAW264.7 cells assessed as inhibition of TLR-2 agonist R-FSL-1-induced NO overproduction relative to control; format: cell-based; set-up: concentration or dose not given beside the values; conditions: concentration not given here
Chain of Platelet glycoprotein 4 (Mus musculus) (Q08857 whole entry): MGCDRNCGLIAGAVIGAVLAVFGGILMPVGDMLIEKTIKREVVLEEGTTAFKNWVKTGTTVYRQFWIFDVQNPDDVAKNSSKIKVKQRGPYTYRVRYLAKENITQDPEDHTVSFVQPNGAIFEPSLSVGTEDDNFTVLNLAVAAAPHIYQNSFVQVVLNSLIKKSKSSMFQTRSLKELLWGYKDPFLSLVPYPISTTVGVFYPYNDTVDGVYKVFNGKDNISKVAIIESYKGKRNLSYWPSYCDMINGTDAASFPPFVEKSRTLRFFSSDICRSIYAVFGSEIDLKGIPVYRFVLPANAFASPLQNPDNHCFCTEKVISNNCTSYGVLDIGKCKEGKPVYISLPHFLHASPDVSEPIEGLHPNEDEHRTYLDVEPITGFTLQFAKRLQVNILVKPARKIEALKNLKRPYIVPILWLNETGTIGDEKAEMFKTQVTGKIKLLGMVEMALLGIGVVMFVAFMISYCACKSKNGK

[2] = biological target: Platelet glycoprotein 4 (Rattus norvegicus) (UniProt Q07969); experiment: Displacement of photoactivated [125I]-Tyr-Bpa-Ala-hexarelin from CD36 in rat heart purified membranes
Chain of Platelet glycoprotein 4 (Rattus norvegicus) (Q07969 whole entry): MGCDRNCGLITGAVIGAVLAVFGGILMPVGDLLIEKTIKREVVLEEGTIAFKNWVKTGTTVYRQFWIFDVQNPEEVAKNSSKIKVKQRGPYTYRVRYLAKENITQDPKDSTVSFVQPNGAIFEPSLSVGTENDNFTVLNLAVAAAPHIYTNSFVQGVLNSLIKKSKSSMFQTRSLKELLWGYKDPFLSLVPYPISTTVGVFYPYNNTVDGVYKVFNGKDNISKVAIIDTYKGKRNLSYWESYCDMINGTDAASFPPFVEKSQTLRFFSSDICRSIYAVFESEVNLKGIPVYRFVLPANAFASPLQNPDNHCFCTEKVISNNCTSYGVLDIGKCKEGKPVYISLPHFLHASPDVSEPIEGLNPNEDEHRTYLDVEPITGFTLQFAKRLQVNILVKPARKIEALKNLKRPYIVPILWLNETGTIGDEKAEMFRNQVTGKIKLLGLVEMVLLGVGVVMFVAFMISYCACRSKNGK

[3] = biological target: Platelet glycoprotein 4 (Mus musculus) (UniProt Q08857); experiment: Modulation activity at CD36 in mouse J774 cells assessed as promotion of cholesterol efflux at 100 nM pre-incubated for 17 hrs before apolipoprotein A-I addition for 4 hrs by fluorescent-labeled cholesterol kit based assay relative to control; format: cell-based
[4] = biological target: Platelet glycoprotein 4 (Rattus norvegicus) (UniProt Q07969); experiment: Displacement of photoactivated [125I]-Tyr-Bpa-Ala-hexarelin from CD36 in rat heart purified membranes relative to control; format: cell membranes

Row | inhibition [1] | IC50 [2] | Activity [3] | inhibition [4] | Structure (SMILES)
1 | 10% | 1040 nM | 6% | – | C=CCN1CC#CC[C@@H](NC(=O)[C@H](C)N)C(=O)N[C@H](Cc2c[nH]c3ccccc23)C(=O)N[C@@H](C)C(=O)N[C@@H](Cc2c[nH]c3ccccc23)C(=O)N[C@H](Cc2ccccc2)C(=O)N[C@H](C(N)=O)CCCC1
2 | 9% | 3320 nM | 6% | – | C=CCN1CC#CC[C@@H](NC(=O)[C@H](C)N)C(=O)N[C@@H](C)C(=O)N[C@@H](Cc2c[nH]c3ccccc23)C(=O)N[C@H](Cc2ccccc2)C(=O)N[C@H](C(N)=O)CCCC1
3 | 20% | 670 nM | 17% | – | C=CCN1CC#CCN(NC(=O)[C@H](C)NC(C)=O)C(=O)N[C@H](Cc2c[nH]c3ccccc23)C(=O)N[C@@H](C)C(=O)N[C@@H](Cc2c[nH]c3ccccc23)C(=O)N[C@H](Cc2ccccc2)C(=O)N[C@H](C(N)=O)CCCC1
4 | 17% | 660 nM | 7% | – | C=CCN1CC#CC[C@H](NC(=O)[C@H](C)N)C(=O)N[C@H](Cc2c[nH]c3ccccc23)C(=O)N[C@@H](C)C(=O)N[C@@H](Cc2c[nH]c3ccccc23)C(=O)N[C@H](Cc2ccccc2)C(=O)N[C@H](C(N)=O)CCCC1
5 | 18% | – | – | inactive | C=CCN1CC#CCN(N)C(=O)N[C@H](Cc2c[nH]c3ccccc23)C(=O)N[C@@H](C)C(=O)N[C@@H](Cc2c[nH]c3ccccc23)C(=O)N[C@H](Cc2ccccc2)C(=O)N[C@H](C(N)=O)CCCC1
6 | 45% | 80 nM | 11% | – | C=CCN1CC#CCN(NC(=O)[C@H](C)N)C(=O)N[C@H](Cc2c[nH]c3ccccc23)C(=O)N[C@@H](C)C(=O)N[C@@H](Cc2c[nH]c3ccccc23)C(=O)N[C@H](Cc2ccccc2)C(=O)N[C@H](C(N)=O)CCCC1
7 | 29% | 240 nM | 6% | – | C=CCN1CC#CCN(NC(=O)[C@H](C)N)C(=O)N[C@@H](C)C(=O)N[C@@H](Cc2c[nH]c3ccccc23)C(=O)N[C@H](Cc2ccccc2)C(=O)N[C@H](C(N)=O)CCCC1
8 | 16% | 1470 nM | 13% | – | C=CCN1CC#CC[C@H](NC(=O)[C@H](C)N)C(=O)N[C@@H](C)C(=O)N[C@@H](Cc2c[nH]c3ccccc23)C(=O)N[C@H](Cc2ccccc2)C(=O)N[C@H](C(N)=O)CCCC1
